Assay results reported in US20070142437A1, “CHEMICAL COMPOUNDS” (priority 2005, published 2007).

system: HUVEC cells; experiment: Human Umbilical Vein Endothelial Cell (HUVEC) proliferation assay (BrdU incorporation); type: cell-based; details: growth stimulated with VEGF, 72 hrs, read-out: Inhibition of HUVEC proliferation IC50
Protocol: Human Umbilical Vein Endothelial Cell (HUVEC) Proliferation Assay (BrdU Incorporation) Materials
HUVEC cells and EGM-MV (Endothelial cell growth medium—microvascular) were purchased from Clonetics (San Diego, Calif.). VEGF and bFGF were purchased from R&D Systems (Minneapolis, Minn.). Anti-BrdU antibody was obtained from Chemicon International (Temecula, Calif.).
HUVECs were routinely maintained in EGM-MV medium and were used within passage 7. HUVECs were plated at a density of 2500 cells/well in M199 medium containing 5% FBS (Hyclone) in type I collagen coated plate (Becton Dickinson). The plate was incubated at 37° C. overnight. The medium was removed by aspiration, and test compounds were added to each well in a volume of 0.1 ml/well in serum-free M199 medium. Compound concentrations ranged from 1.5 nM to 30 micromolar. The plate was incubated for 30 min at 37° C. Another 0.1 ml of serum-free M199 medium containing BSA and VEGF (or bFGF) was added to give a final concentration of 0.1% BSA and 10 ng/ml VEGF (0.3 ng/ml bFGF). The plate was incubated at 37° C. for 72 hrs. BrdU was added to each well after the first 48 hrs to give a concentration of 10 micromolar. The colorimetric ELISA assay was performed according to manufacturer's (Roche Molecular Sciences) instructions, with detection by absorbance reading at 450 nm. Results were plotted as concentration of test compound vs. absorbance to give an IC50 value for inhibition of BrdU incorporation.

SMILES	IC50 [nM]
CCS(=O)(=O)c1ccc(OC)c(Nc2ncc(-c3cccc(-c4ccccn4)c3)o2)c1 [Example 178, N-[5-(ethylsulfonyl)-2-methoxyphenyl]-5-(3-pyridin-2-ylphenyl)-1,3-oxazol-2-amine]	< 500
CCC(CC)S(=O)(=O)c1ccc(OC)c(Nc2ncc(-c3cccc(-c4ccccn4)c3)o2)c1 [Example 192, N-{5-[(1-ethylpropyl)sulfonyl]-2-methoxyphenyl}-5-(3-pyridin-2-ylphenyl)-1,3-oxazol-2-amine]	< 1000
CCS(=O)(=O)c1ccc(OC)c(Nc2ncc(-c3cccc(OC4CCOC4)c3)o2)c1 (stereo not drawn) [Example 167, N-[5-(ethylsulfonyl)-2-methoxyphenyl]-5-[3-(tetrahydrofuran-3-yloxy)phenyl]-1,3-oxazol-2-amine]	< 1000
CCS(=O)(=O)c1ccc(OC)c(Nc2ncc(-c3cccc(Br)c3)o2)c1 [Example 100, 5-(3-bromophenyl)-N-[5-(ethylsulfonyl)-2-methoxyphenyl]-1,3-oxazol-2-amine]	< 1000
COc1ccc(S(=O)(=O)NCC2CCCO2)cc1Nc1ncc(-c2ccc(F)cc2)o1 (stereo not drawn) [Example 124, 3-{[5-(4-fluorophenyl)-1,3-oxazol-2-yl]amino}-4-methoxy-N-(tetrahydrofuran-2-ylmethyl)benzenesulfonamide]	< 1000
CCN(CC)S(=O)(=O)c1ccc(OC)c(Nc2ncc(-c3cccc(-c4ccccc4)c3)o2)c1 [Example 228, 3-{[5-(1,1′-biphenyl-3-yl)-1,3-oxazol-2-yl]amino}-N,N-diethyl-4-methoxybenzenesulfonamide]	< 500
CCS(=O)(=O)c1ccc(OC)c(Nc2ncc(-c3cccc(Cl)c3)o2)c1 [Example 137, 5-(3-chlorophenyl)-N-[5-(ethylsulfonyl)-2-methoxyphenyl]-1,3-oxazol-2-amine]	< 1000
COc1ccc(S(=O)(=O)NCC2CCCO2)cc1Nc1ncc(-c2cccc(-c3ccccc3)c2)o1 (stereo not drawn) [Example 229, 3-{[5-(1,1′-biphenyl-3-yl)-1,3-oxazol-2-yl]amino}-4-methoxy-N-(tetrahydrofuran-2-ylmethyl)benzenesulfonamide]	< 1000
CCS(=O)(=O)c1ccc(OC)c(Nc2ncc(-c3cccc(-c4cccs4)c3)o2)c1 [Example 172, N-[5-(ethylsulfonyl)-2-methoxyphenyl]-5-(3-thien-2-ylphenyl)-1,3-oxazol-2-amine]	< 500
CCS(=O)(=O)c1ccc(OC)c(Nc2ncc(-c3cccc(-c4ccccc4Cl)c3)o2)c1 [Example 216, 5-(2′-chloro-1,1′-biphenyl-3-yl)-N-[5-(ethylsulfonyl)-2-methoxyphenyl]-1,3-oxazol-2-amine]	< 500
COc1ccc(S(=O)(=O)NCC2CC2)cc1Nc1ncc(-c2cccc(-c3ccccn3)c2)o1 [Example 221, N-(cyclopropylmethyl)-4-methoxy-3-{[5-(3-pyridin-2-ylphenyl)-1,3-oxazol-2-yl]amino}benzenesulfonamide]	< 1000
COc1ccc(S(N)(=O)=O)cc1Nc1ncc(-c2cccc(-c3ccccc3)c2)o1 [Example 187, 3-{[5-(1,1′-biphenyl-3-yl)-1,3-oxazol-2-yl]amino}-4-methoxybenzenesulfonamide]	< 500
CCS(=O)(=O)c1ccc(OC)c(Nc2ncc(-c3cccc(-c4ccsc4)c3)o2)c1 [Example 173, N-[5-(ethylsulfonyl)-2-methoxyphenyl]-5-(3-thien-3-ylphenyl)-1,3-oxazol-2-amine]	< 500
CCS(=O)(=O)c1ccc(OC)c(Nc2ncc(-c3cccc(F)c3)o2)c1 [Example 141, N-[5-(ethylsulfonyl)-2-methoxyphenyl]-5-(3-fluorophenyl)-1,3-oxazol-2-amine]	< 500
COc1ccc(S(=O)(=O)NC(C)C)cc1Nc1ncc(-c2cccc(-c3ccccc3)c2)o1 [Example 224, 3-{[5-(1,1′-biphenyl-3-yl)-1,3-oxazoI-2-yl]amino}-N-isopropyl-4-methoxybenzenesulfonamide]	< 500
COc1cc(Nc2ncc(-c3ccccc3)o2)cc(OC)c1OC [Example 74, 5-phenyl-N-(3,4,5-trimethoxyphenyl)-1,3-oxazol-2-amine]	< 500
COc1ccc(S(=O)(=O)C(C)C)cc1Nc1ncc(-c2ccc(F)cc2)o1 [Example 97, 5-(4-fluorophenyl)-N-[5-(isopropylsulfonyl)-2-methoxyphenyl]-1,3-oxazol-2-amine]	< 500
CCS(=O)(=O)c1ccc(OC)c(Nc2ncc(-c3cccc(-c4ccc5c(c4)CCO5)c3)o2)c1 [Example 184, 5-[3-(2,3-dihydro-1-benzofuran-5-yl)phenyl]-N-[5-(ethylsulfonyl)-2-methoxyphenyl]-1,3-oxazol-2-amine]	< 500
COc1ccc(S(=O)(=O)CC(C)C)cc1Nc1ncc(-c2ccc(F)cc2)o1 [Example 93, 5-(4-fluorophenyl)-N-[5-(isobutylsulfonyl)-2-methoxyphenyl]-1,3-oxazol-2-amine]	< 1000
COc1ccc(S(=O)(=O)C(C)C)cc1Nc1ncc(-c2cccc(-c3ccccn3)c2)o1 [Example 193, N-[5-(isopropylsulfonyl)-2-methoxyphenyl]-5-(3-pyridin-2-ylphenyl)-1,3-oxazol-2-amine]	< 1000
COc1ccc(S(=O)(=O)NC(C)C)cc1Nc1ncc(-c2ccc(F)cc2)o1 [Example 123, 3-{[5-(4-fluorophenyl)-1,3-oxazol-2-yl]amino}-N-isopropyl-4-methoxybenzenesulfonamide]	< 1000
CCS(=O)(=O)c1ccc(OC)c(Nc2ncc(-c3ccc(C#N)cc3)o2)c1 [Example 133, 4-(2-{[5-(ethylsulfonyl)-2-methoxyphenyl]amino}-1,3-oxazol-5-yl)benzonitrile]	< 500
CCS(=O)(=O)c1ccc(OC)c(Nc2ncc(-c3cccc(-c4cccc(F)c4)c3)o2)c1 [Example 207, N-[5-(ethylsulfonyl)-2-methoxyphenyl]-5-(3′-fluoro-1,1′-biphenyl-3-yl)-1,3-oxazol-2-amine]	< 500
COc1ccc(S(=O)(=O)C(C)c2ccncc2)cc1Nc1ncc(-c2cccc(-c3ccccc3)c2)o1 (stereo not drawn) [Example 196, 5-(1,1′-biphenyl-3-yl)-N-{2-methoxy-5-[(1-pyridin-4-ylethyl)sulfonyl]phenyl}-1,3-oxazol-2-amine]	< 500
